Results: the C3SDB collision cross section collection
“And” between values parts separate entries of the source, which are not always exact repeats. Equal entries are not always repeated.

Details: instrument: DT, single field, calibrated with ESI Low Concentration Tuning Mix (Agilent)

SMILES | collision cross section (N2) ([M+K]+) [Å²] | collision cross section (N2) ([M+Na]+) | collision cross section (N2) ([M-H]-) | collision cross section (N2) ([M+Na-2H]-) [Å²] | collision cross section (N2) ([M+H]+) [Å²] | collision cross section (N2) ([M+H2O-H]-) [Å²]
OC[C@H]1O[C@@H](O[C@H]2[C@H](O)[C@@H](O)[C@H](O)O[C@@H]2CO)[C@H](O)[C@@H](O)[C@@H]1O [CELLOBIOSE] | 180.9 | 178.7 Å² | 179.7 Å² | – | – | –
OCC1(O)OC[C@@H](O)[C@@H](O)[C@@H]1O (some centres not stated) [FRUCTOSE] | – | 141.5 Å² | – | – | – | –
CCC(C)C(=O)C(=O)O (configuration not stated) [3-METHYL-2-OXOVALERATE] | – | – | 127.1 Å² | – | – | –
Cn1cncc1C[C@H](NC(=O)CCN)C(=O)O [ANSERINE] | – | 156.2 Å² | 154.8 Å² | – | 153.8 | –
NC(=O)c1ccc[n+]([C@@H]2O[C@H](COP(=O)([O-])OP(=O)(O)OC[C@H]3O[C@@H](n4cnc5c(N)ncnc54)[C@H](O)[C@@H]3O)[C@@H](O)[C@H]2O)c1 [BETA-NICOTINAMIDE ADENINE DINUCLEOTIDE] | – | 222.7 Å² | 223.8 Å² | 230.8 | 227.5 | –
CC(CCC(=O)O)C(=O)O (configuration not stated) [2-METHYLGLUTARATE] | – | 137.4 Å² | 126 Å² | 132.6 | – | –
NC(=O)NCCC[C@H](N)C(=O)O [CITRULLINE] | – | 139.4 Å² | 135.4 Å² | – | 137.7 | –
COc1cc(/C=C/C(=O)O)ccc1O [FERULATE] | – | – | 139.8 Å² | – | – | –
C[C@H](CCC(=O)O)[C@H]1CC[C@H]2[C@@H]3CC[C@@H]4C[C@H](O)CC[C@]4(C)[C@H]3C[C@H](O)[C@]12C [DEOXYCHOLATE] | – | – | 202.2 Å² and 202.3 Å² | – | – | –
NCCC(=O)N[C@@H](Cc1cnc[nH]1)C(=O)O [CARNOSINE] | – | 154.7 Å² | 152.1 Å² | – | 150.8 | –
N[C@@H](C(=O)O)[C@@H](O)[C@H](O)[C@H](O)CO [GLUCOSAMINATE] | – | 146.5 Å² | 135.7 Å² | – | 141.8 | –
Nc1nc(=O)c2[nH]cnc2[nH]1 [GUANINE] | 136 | 137.8 Å² | – | – | – | –
Nc1ccn(C2O[C@H](CO)[C@H]3OP(=O)(O)O[C@@H]23)c(=O)n1 (some centres not stated) [CYTIDINE 2',3'-CYCLIC PHOSPHATE] | 168 | 167.4 Å² | 164.5 Å² | 165 | 163.3 | 167.1
O=C(O)CCCCCCCCCO [10-HYDROXYDECANOATE] | – | 151 Å² | 144.3 Å² | – | – | –
CC(C)=CCC/C(C)=C/COP(=O)(O)OP(=O)(O)O [GERANYL-PP] | – | – | 167.2 Å² | 173.8 | – | –
Nc1ccc(C(=O)[O-])cc1 [4-AMINOBENZOATE] | – | – | – | – | 126.9 | –
OC[C@@H](O)C(O)[C@H](O)CO [ARABITOL] | – | 135.8 Å² | 124.9 Å² | – | – | –
NCCC[C@@H](N)C(=O)O [D-ORNITHINE] | – | – | 128.3 Å² | – | 128.1 | –
CC(=O)N[C@@H]1[C@@H](O)[C@H](O)[C@@H](CO)O[C@H]1N [2-ACETAMIDO-2-DEOXY-BETA-D-GLUCOSYLAMINE] | – | 149.1 Å² and 157.8 Å² | 155.2 Å² | – | – | –

More lines, now with the values ahead:

collision cross section (N2) ([M+K]+) [Å²] | collision cross section (N2) ([M+Na]+) | collision cross section (N2) ([M-H]-) | collision cross section (N2) ([M+Na-2H]-) [Å²] | collision cross section (N2) ([M+H]+) [Å²] | collision cross section (N2) ([M+H2O-H]-) [Å²] | SMILES
– | 211 Å² | 211.9 Å² | 204.6 | – | – | O=C(O)[C@H]1O[C@H](OP(=O)(O)OP(=O)(O)OC[C@H]2O[C@@H](n3ccc(=O)[nH]c3=O)[C@H](O)[C@@H]2O)[C@H](O)[C@@H](O)[C@@H]1O [URIDINE DIPHOSPHATE GLUCURONIC ACID]
– | 174.3 Å² | 169.4 Å² | 172.1 | 179.5 | – | Nc1nc(=O)c2ncn([C@@H]3O[C@H](COP(=O)(O)O)[C@@H](O)[C@H]3O)c2[nH]1 [GUANOSINE MONOPHOSPHATE]
– | 138.1 Å² | 149.9 Å² | – | 135.2 | – | C[Se]CCC(N)C(=O)O (configuration not stated) [SELENOMETHIONINE]
– | 200.9 Å² | 189 Å² | 192.4 | 200.5 | – | CCCCCCSC[C@H](NC(=O)CC[C@H](N)C(=O)O)C(=O)NCC(=O)O [S-HEXYL-GLUTATHIONE]
– | – | 132.6 Å² | – | 125.4 | – | NCCS(=O)O [HYPOTAURINE]
– | 152.7 Å² | – | 146 | – | – | O=C(O)CCCCCCCCC(=O)O [SEBACATE]
– | 189 Å² | 186.4 Å² | 180.3 | 182.9 | – | Nc1ncnc2c1ncn2[C@@H]1O[C@H](CSCC[C@H](N)C(=O)O)[C@@H](O)[C@H]1O [S-ADENOSYLHOMOCYSTEINE]
– | 157.2 Å² | – | – | 143.9 | – | CN(C)C(N)=NCCC[C@H](N)C(=O)O [N,N-DIMETHYLARGININE]
– | – | – | – | 124.6 | – | COC(=O)CCCN [METHYL 4-AMINOBUTYRATE]
– | 150.2 Å² | – | – | – | – | CC(=O)N[C@@H]1C(O)O[C@H](CO)[C@@H](O)[C@@H]1O (some centres not stated) [N-ACETYLMANNOSAMINE]
– | 134.5 Å² | – | – | 128.6 | – | CC(=O)NCCCCN [N-ACETYLPUTRESCINE]
– | 143.6 Å² | 143.8 Å² | – | 145.8 | – | N[C@@H](Cc1ccc(O)cc1)C(=O)O [TYROSINE]
– | 147.7 Å² | 143.3 Å² | – | 150.5 | – | NC(=O)[C@@H](N)Cc1c[nH]c2ccccc12 [L-TRYPTOPHANAMIDE]
– | 144.4 Å² | 145 Å² | – | 145.5 | – | CC(=O)NC(CCCCN)C(=O)O (stereo not drawn) [N-ALPHA-ACETYLLYSINE]
– | – | 129.3 Å² | – | 133 | – | CC[C@H](C)[C@H](N)C(=O)O [ISOLEUCINE]
– | 140.8 Å² | 129.6 Å² | – | – | 133.5 | O=C1O[C@H]([C@@H](O)CO)[C@H](O)[C@@H]1O [L-GULONOLACTONE]
– | – | – | – | 185.7 | – | C[S+](CC[C@H](N)C(=O)[O-])C[C@H]1O[C@@H](n2cnc3c(N)ncnc32)[C@H](O)[C@@H]1O (some centres not stated) [S-ADENOSYLMETHIONINE]
– | – | 130.7 Å² | – | 132.3 | – | O=CCc1c[nH]c2ccccc12 [INDOLEACETALDEHYDE]
– | – | 132.6 Å² | – | 133.6 | – | OCCc1c[nH]c2ccccc12 [INDOLE-3-ETHANOL]
